From patent US20020137929A1, “1 - (3-heterocyclylphenyl) isothiourea, -isourea, -guanidine and -amidine herbicidal agents” (Intellectual Property Department, BASF Aktiengesellschaft, priority 1998, published 2002)

Assays:
[1] = tested on: ZEAMX (Corn, Field); assay: Postemergence herbicidal evaluation; type: in vivo, Zea mays; details: postemergence
Outline: (§1)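 Rate range approx. 0.0156–0.500 kg/ha. Foliar application at 40 psi to ~2-week seedlings; surfactant 0.5% TWEEN 20 in 50/50 acetone/water. Evaluation 4–5 wk post-treatment by 0–9 visual injury score, means of replicate tests.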

[2] = tested on: AMBEL (Ragweed, Common); assay: Preemergence herbicidal evaluation; type: in vivo, Ambrosia artemisifolia; details: rated 4-5 weeks after treatment
Outline: (§2)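 Scores use a 0–9 visual scale covering stand, vigor, malformation, size and chlorosis relative to controls, rated four to five weeks after treatment. Before emergence, soil-planted seeds were sprayed with compound in aqueous acetone at roughly 0.0156–0.500 kg/ha and held in the greenhouse.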

[3] = tested on: SETVI (Foxtail, Green); assay: Postemergence herbicidal evaluation; type: in vivo, Setaria viridis; details: postemergence
Outline: as §1

[4] = tested on: CHEAL (Lambsquarters, Common); assay: Postemergence herbicidal evaluation; type: in vivo, Chenopodium album; details: postemergence
Outline: as §1

[5] = tested on: CYPIR (Rice Flatsedge); assay: Preemergence weed control under flooded paddy conditions; type: in vivo, Cyperus iria; details: rated 3-4 weeks after treatment
Outline: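 Herbicidal effect is scored visually on a 0-9 scale against an untreated control, three to four weeks after compounds are pipetted into the flood water (1.5 to 3 cm deep) over seeds planted in silt loam at 0.5 cm depth. Rates: about 0.0313 to 0.500 kg/ha.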

[6] = tested on: GLXMAW (Soybean, Williams); assay: Postemergence herbicidal evaluation; type: in vivo, Glycine max, (L.) Merr. cv Williams; details: postemergence
Outline: as §1

[7] = tested on: SETVI (Foxtail, Green); assay: Preemergence herbicidal evaluation; type: in vivo, Setaria viridis; details: rated 4-5 weeks after treatment
Outline: as §2

[8] = tested on: GALAP (Galium); assay: Preemergence herbicidal evaluation; type: in vivo, Galium aparine; details: rated 4-5 weeks after treatment
Outline: as §2

[9] = tested on: ABUTH (Velvetleaf); assay: Postemergence herbicidal evaluation; type: in vivo, Abutilon theophrasti; details: postemergence
Outline: as §1

[10] = tested on: TRZAWR (Wheat, Winter, cv Riband); assay: Postemergence herbicidal evaluation; type: in vivo, Triticum aestivum; details: postemergence
Outline: as §1

[11] = tested on: ORYSAT (Rice, Tebonnet); assay: Postemergence herbicidal evaluation; type: in vivo, Oryza sativa, (L.) Tebonnet; details: postemergence
Outline: as §1

[12] = rate 0.0156 kg/ha, rating scale 0-9
[13] = rate 0.0313 kg/ha, rating scale 0-9
[14] = rate 0.0625 kg/ha, rating scale 0-9
[15] = rate 0.1250 kg/ha, rating scale 0-9
[16] = rate 0.2500 kg/ha, rating scale 0-9

Structure (SMILES)	Herbicidal rating ZEAMX ([1]; rate 0.0156 kg/ha)	Herbicidal rating ZEAMX ([1]; rate 0.0313 kg/ha)	Herbicidal rating ZEAMX ([1]; rate 0.0625 kg/ha)	Herbicidal rating SETVI ([3]; rate 0.0156 kg/ha)	Herbicidal rating SETVI ([3]; rate 0.0313 kg/ha)	Herbicidal rating SETVI ([3]; rate 0.0625 kg/ha)	Herbicidal rating CHEAL ([4]; rate 0.0156 kg/ha)	Herbicidal rating CHEAL ([4]; rate 0.0313 kg/ha)	Herbicidal rating CHEAL ([4]; rate 0.0625 kg/ha)	herbicidal effect rating, CYPIR ([5]; 0.0313 kg/ha)	herbicidal effect rating, CYPIR ([5]; 0.0625 kg/ha)	herbicidal effect rating, CYPIR ([5]; 0.1250 kg/ha)	herbicidal effect rating, CYPIR ([5]; 0.2500 kg/ha)	Herbicidal rating GLXMAW ([6]; rate 0.0156 kg/ha)	Herbicidal rating GLXMAW ([6]; rate 0.0313 kg/ha)	Herbicidal rating GLXMAW ([6]; rate 0.0625 kg/ha)	Herbicidal rating ABUTH ([9]; rate 0.0156 kg/ha)	Herbicidal rating ABUTH ([9]; rate 0.0313 kg/ha)	Herbicidal rating ABUTH ([9]; rate 0.0625 kg/ha)	Herbicidal rating TRZAWR ([10]; rate 0.0156 kg/ha)	further results
Cn1c(C(F)(F)F)cc(=O)n(-c2cc(N=C3SCC(=O)N3Cc3cccc(Cl)c3)c(Cl)cc2F)c1=O [Compound 136, 3-{4-Chloro-5-{[3-(m-chlorobenzyl)-4-oxo-2-thiazolidinylidene]amino}-2-fluorophenyl}-1-methyl-6-(trifluoromethyl)-2,4(1H,3H)-pyrimidinedione]	4.0	4.0	4.0	4.0	6.0	6.0	9.0	9.0	9.0	0.0	5.0	6.0	7.0	4.5	5.5	5.5	9.0	9.0	9.0	2.5	Preemergence herbicidal rating AMBEL [2, 12]: 0.0; Preemergence herbicidal rating AMBEL [2, 13]: 0.0; Preemergence herbicidal rating AMBEL [2, 14]: 1.0; Preemergence herbicidal rating AMBEL [2, 15]: 2.0; Preemergence herbicidal rating AMBEL [2, 16]: 5.0; Preemergence herbicidal rating SETVI [7, 12]: 0.0; Preemergence herbicidal rating SETVI [7, 13]: 0.0; Preemergence herbicidal rating SETVI [7, 14]: 2.0; Preemergence herbicidal rating SETVI [7, 15]: 4.0; Preemergence herbicidal rating SETVI [7, 16]: 7.0; Preemergence herbicidal rating GALAP [8, 12]: 0.0; Preemergence herbicidal rating GALAP [8, 13]: 0.0; Preemergence herbicidal rating GALAP [8, 14]: 1.0; Preemergence herbicidal rating GALAP [8, 15]: 2.0; Preemergence herbicidal rating GALAP [8, 16]: 3.0; Herbicidal rating TRZAWR ([10]; rate 0.0313 kg/ha): 3.0; Herbicidal rating TRZAWR ([10]; rate 0.0625 kg/ha): 3.0; Herbicidal rating ORYSAT ([11]; rate 0.0156 kg/ha): 2.5; Herbicidal rating ORYSAT ([11]; rate 0.0313 kg/ha): 3.0; Herbicidal rating ORYSAT ([11]; rate 0.0625 kg/ha): 2.5
CCOC(=O)CN1C(=O)C(C(=O)OC)SC1=Nc1cc(-n2c(=O)cc(C(F)(F)F)n(C)c2=O)c(F)cc1Cl (stereo not shown) [Compound 128, 5-Carboxy-2-{{2-chloro-5-[3,6-dihydro-3-methyl-2,6-dioxo-4-(trifluoromethyl)-1(2H)-pyrimidinyl]-4-fluorophenyl}imino}-4-oxo-3-thiazolidineacetic acid, 3-ethyl methyl ester]	3.5	4.0	6.0	1.0	1.0	4.0	4.0	9.0	9.0	0.0	4.0	4.0	4.0	4.5	4.5	6.0	6.0	9.0	9.0	2.0	Preemergence herbicidal rating AMBEL ([2]; rate 0.0156 kg/ha): 0.0; Preemergence herbicidal rating AMBEL ([2]; rate 0.0313 kg/ha): 0.0; Preemergence herbicidal rating AMBEL ([2]; rate 0.0625 kg/ha): 0.0; Preemergence herbicidal rating AMBEL ([2]; rate 0.1250 kg/ha): 2.0; Preemergence herbicidal rating AMBEL ([2]; rate 0.2500 kg/ha): 3.0; Preemergence herbicidal rating SETVI ([7]; rate 0.0156 kg/ha): 0.0; Preemergence herbicidal rating SETVI ([7]; rate 0.0313 kg/ha): 1.0; Preemergence herbicidal rating SETVI ([7]; rate 0.1250 kg/ha): 1.0; Preemergence herbicidal rating SETVI ([7]; rate 0.2500 kg/ha): 7.0; Preemergence herbicidal rating GALAP ([8]; rate 0.0156 kg/ha): 0.0; Preemergence herbicidal rating GALAP ([8]; rate 0.0313 kg/ha): 0.0; Preemergence herbicidal rating GALAP ([8]; rate 0.0625 kg/ha): 0.0; Preemergence herbicidal rating GALAP ([8]; rate 0.1250 kg/ha): 1.0; Preemergence herbicidal rating GALAP ([8]; rate 0.2500 kg/ha): 1.0; Herbicidal rating TRZAWR ([10]; rate 0.0313 kg/ha): 3.0; Herbicidal rating TRZAWR ([10]; rate 0.0625 kg/ha): 3.5; Herbicidal rating ORYSAT ([11]; rate 0.0156 kg/ha): 1.5; Herbicidal rating ORYSAT ([11]; rate 0.0313 kg/ha): 2.0; Herbicidal rating ORYSAT ([11]; rate 0.0625 kg/ha): 2.5
